Reference: US6429208B1, “Methods and compositions for restoring impaired cellular immune function” (Regents of the University of California, priority 1992, dated 2002)

Legend:
[1] = system: PBMC from HIV seropositive subjects; assay: Intracellular cAMP in PBMC from HIV seropositive subjects; type: cell-based, human
Protocol: The compound 2′,5′ dideoxyadenosine (ddAdo) inhibits adenylate cyclase, the enzyme responsible for the generation of cAMP, by competition for the “P”-binding site (Johnson, J Biochem (1990) 265:11595-11600). […] In one such experiment (FIG. 9A), the intracellular cAMP level decreased to normal levels within 4 hours and remained at this level when tested after 20 hours. The effect of ddAdo was compared with two other adenylate cyclase inhibitors which are naturally occurring adenosine phosphates. When used in equal concentrations, the three inhibitors gave similar reductions in intracellular CAMP levels. For example, when added in 10 ng/ml for 10 min, ddAdo decreased the CAMP levels from 5.3 pmol/10^6 PBMC to 3.6; 3′ AMP to 3.5; and 2′,3′deoxy-AMP reduced the level to 3.2 pmol/10^6 PBMC.
cAMP was determined using a commercial scintillation proximity RIA (Amersham, Arlington Heights, Ill.) following the manufacturer's protocol. PKA activity was determined using a kit from Gibco (Grand Island, N.Y.) and the manufacturer's protocol. For the cAMP assay, cells were lysed and sonicated in assay buffer (provided with the kits). Proliferative assays were performed as described above.
Further purification was achieved by reverse phase chromatography. 3 ml of above solution was applied on C18 Sep-Pak cartridge (Waters) equilibrated with water+0.1% TFA. The column was washed with H2O-TFA until absorbance at 280nm reached baseline. Bound material was eluted from the column by stepwise elution with H2O-acetonitrile-TFA mixtures. There were three peaks on elution curve at 20%, 40% and 70% acetonitrile. The effluent from the above step was rechromatographed again on C18 cartridge and yielded additional quantities of the three products. […] Fraction 2 was added in various PBS dilutions to lymphocytes from HIV seropositive subjects. cAMP was then measured on lysates of these cells after 1 hour.

[2] = system: PBMC from HIV seropositive subjects; assay: Proliferative response to Candida albicans, PBMC from HIV seropositive subjects; type: cell-based, human
Protocol: (§1) Proliferative assays were done in triplicates of 50,000 PBMC in 200 μL RPMI with 10% FCS and 8 μg/ml of Candida albicans. ddAdo was added in two-fold dilutions; tritiated thymidine was added at day 5 and cells were harvested at day 6. Concentrations of ddAdo from 12.5 to 50 ng/ml gave the highest responses. […] Ratio 1:12 gave 48% (±12) without and 76% (±9) with ddAdo during priming. Ratio 1:25 gave 61% (±15) without and 77% (±9) with ddAdo.

[3] = system: PBMC from HIV seronegative controls; assay: Proliferative response to Candida albicans, HIV seronegative controls; type: cell-based, human; conditions: seven HIV seronegative controls; without ddAdo 6600 (±2000)
Protocol: as §1

[4] = system: PBMC from HIV seropositive donors; assay: Immunoglobulin / anti-HIV antibody production by PBMC from HIV seropositive donors; type: cell-based, human; conditions: 10 days
Protocol: Immunoglobulin production by B-cells is regulated by T-cells; CD4 provides “help” for de novo synthesis and CD8 suppresses immunoglobulin production. In HIV infection, increased total immunoglobulin production with a decrease in certain specific HIV antibodies to HIV GAG proteins during infection is a common finding (Lange, et al. AIDS (1987) 1:155-9). In this experiment, 10^6 PBMC from HIV seropositive donors were incubated in 1 ml cultures with and without ddAdo (1-100 ng/ml) for 10 days. IgG and anti-HIV antibodies in supernatant were measured by ELISA. p24 binding capacity was measured with a kit from DuPont following the manufacturer's protocol. Addition of ddAdo to cultures of PBMC from HIV seropositive subjects restored production of specific antibodies to p24 (Table 3). An effect of ddAdo on T-cells has been shown above but a possible direct effect on B-cells cannot be ruled out.
Addition of ddAdo to cultures of PBMC from HIV seropositive subjects increased spontaneous anti-p24 antibodies in individuals with none/low spontaneous production (p24 is an HIV core protein). One million PBMC from HIV seropositive donors were incubated in 1 ml cultures with and without ddAdo (1-100 ng/ml) for 10 days. IgG10 and production of anti-HIV antibodies to p24 in supernatants were measured by ELISA. p24 binding capacity was measured with a kit from DuPont (Delaware) following the manufacturer's protocol.

PBMC = assay: Proliferative response to PHA after preincubation with HIV components; type: cell-based, human; conditions: HIV components 1 hour, wash, ddAdo 10 minutes, 5 of 5 experiments, FIG. 7
Protocol: (§2) Proliferative assays were performed as previously described (see, for example, Hofmann, B., et al., Cell Immunol (1989) 121:336-48. Briefly, one microcurie ^3H-thymidine was added to cultures 72 hours after stimulation, and after further 24 hours, all cultures were harvested on glass fiber filters with an automatic harvesting machine (Skatron, Lierbyen, Norway), and the incorporated radioactivity was measured in a liquid scintillation counter (Beckman LS 1800) after an addition of 1.5 ml scintillation fluid.
HIV components were added to PBMC for 1 hour followed by washing and then treating the cells with dideoxyadenosine (ddAdo) for 10 minutes, again followed by washing. Under these circumstances, the proliferative response to PHA could be restored (FIG. 7).

[5] = system: PBMC from an HIV seropositive subject; assay: Proliferative response to PHA of PBMC from HIV seropositive subjects; type: cell-based, human
Protocol: as §2

T lymphocyte = T lymphocyte proliferative response to HIV-specific protein (p24) in HIV seropositive subjects; type: cell-based, human; conditions: FIG. 11
From the text: FIG. 11 is a graph showing T lymphocyte proliferative response in HIV seropositive subjects to a specific recall antigen (Candida albicans) and to an HIV-specific protein (p24) before and after ddAdo treatment.

[6] = Personal Communication; cited from earlier work

## C[C@H]1O[C@@H](n2cnc3c(N)ncnc32)C[C@@H]1O [ddAdo, 2′,5′ dideoxyadenosine]
[1]; 10 ng/ml for 10 min, decreased from 5.3
  cAMP levels: 3.6 pmol/10^6 PBMC
[1]; added for 10 minutes followed by washing, remained at this level after 20 hours, FIG. 9A
  Time for intracellular cAMP level to decrease to normal levels: ≤ 4 h
[2]; 14 HIV seropositive subjects, increased from 2900 (±1300)
  Responses to Candida albicans (mean and SEM): 6100 (±1600) cpm
[2]; some HIV seropositive subjects, increased from less than 1000 cpm, FIG. 10A
  Responses to Candida albicans: about 10,000 cpm
[3]
  Responses to Candida albicans: 7600 (±1.9) cpm
[4]; Patient 1, none 0
  p24 Binding Capacity: 14 pg/mL
[4]; Patient 1, none 326
  IgG: 367 µg/mL
[4]; Patient 1, none .5910
  Anti-HIV Ab: .5300 OD
[4]; Patient 2, none 0
  p24 Binding Capacity: 16 pg/mL
[4]; Patient 2, none 98
  IgG: 89 µg/mL
[4]; Patient 2, none .1320
  Anti-HIV Ab: .1940 OD
[4]; Patient 3, none 0
  p24 Binding Capacity: 88 pg/mL
[4]; Patient 3, none 1.1390
  Anti-HIV Ab: 1.0820 OD
[4]; Patient 3, none 366
  IgG: 309 µg/mL
[4]; Patient 4, none 25
  p24 Binding Capacity: 49 pg/mL
[4]; Patient 4, none 123
  IgG: 142 µg/mL
[4]; Patient 4, none .2000
  Anti-HIV Ab: .1640 OD
[4]; Patient 5, none 41
  p24 Binding Capacity: 32 pg/mL
[4]; Patient 5, none 55
  IgG: 192 µg/mL
[4]; Patient 5, none .1480
  Anti-HIV Ab: .1360 OD
[4]; Patient 6, none 60
  p24 Binding Capacity: 50 pg/mL
[4]; Patient 6, none 76
  IgG: 80 µg/mL
[4]; Patient 6, none .0330
  Anti-HIV Ab: .0330 OD
[4]; Patient 7, none 244
  IgG: 145 µg/mL
[4]; Patient 7, none 376
  p24 Binding Capacity: 418 pg/mL
[4]; Patient 7, none .0570
  Anti-HIV Ab: .2990 OD
[4]; Patient 8, none 143
  IgG: 170 µg/mL
[4]; Patient 8, none 1540
  p24 Binding Capacity: 1560 pg/mL
[4]; Patient 8, none .4860
  Anti-HIV Ab: .3900 OD
PBMC
  Proliferative response to PHA: restored
[5]
  Proliferative response to PHA: improved
T lymphocyte
  T lymphocyte responses directed against HIV: restores/increases
[6]
  Antiviral effect: no antiviral effect
